{
  "source": "patent US20160263110A1",
  "about": "(priority 2013, published 2016)",
  "key": {"ALS mouse model": {"system": "ALS mouse model", "conditions": "list of drugs tested in ALS, Zoccolella et al. 2009; cited from earlier work"}, "[1]": {"conditions": "list of drugs tested in ALS, Zoccolella et al. 2009; cited from earlier work"}, "ALS patients": {"system": "ALS patients", "conditions": "list of drugs tested in ALS, Zoccolella et al. 2009; cited from earlier work"}, "SOD1G93A rats": {"system": "SOD1G93A rats", "experiment": "ALS model in SOD1G93A rats: disease onset and survival"}, "[2]": {"system": "B6SJL-Tg SOD1G93A female mice", "conditions": "30 mg/kg/day; from 90 to 120 days"}, "[3]": {"system": "B6SJL-Tg SOD1G93A female mice"}, "[4]": {"experiment": "safety data in non-oncology indications", "assay_type": "in vivo"}, "[5]": {"system": "human cord blood mast cells", "conditions": "cited from earlier work"}, "Non-Tg SOD1G93A mice": {"system": "Non-Tg SOD1G93A mice", "experiment": "negative intervention control in Non-Tg SOD1G93A mice", "conditions": "100 mg/kg/day"}, "[6]": {"system": "B6SJL-Tg SOD1G93A female mice", "conditions": "for Age of onse, Averages / Age of deal, Averages: average of 8 mice; for Age of onse, Averages: control average 101.25; for Age of deal, Averages: control average 135"}},
  "note": "Values joined by “and” are separate entries in the source; they are usually repeats but may differ in a detail not shown here. Equal values may be shown once. “Also recorded” adds a separate entry of the source. Read-outs that look alike come from different tables or passages of the source.",
  "data": [
    {"compound": "CC/C(=C(\\c1ccccc1)c1ccc(OCCN(C)C)cc1)c1ccccc1", "note": "[Tamoxifen]", "values": [
      {"measurement": "Mouse model", "setting": "ALS mouse model", "value": "Overall positive"},
      {"measurement": "Human Safety", "setting": "[1]", "value": "Relatively safe"},
      {"measurement": "Benefits", "setting": "ALS patients", "value": "survival benefit"}
    ]},
    {"compound": "Cc1ccc(NC(=O)c2ccc(CN3CCN(C)CC3)cc2)cc1Nc1nc(-c2cccnc2)cs1", "note": "[masitinib, 4-(4-methylpiperazin-1-ylmethyl)-N-[4-methyl-3-(4-pyridin-3ylthiazol-2-ylamino)phenyl]benzamide]", "values": [
      {"measurement": "survival without paralytic symptoms or weight loss (two rats of the group)", "setting": "SOD1G93A rats; 40 mg/kg oral", "value": 7, "unit": "months"},
      {"measurement": "early paralysis and death (two rats of the group)", "setting": "SOD1G93A rats; 40 mg/kg oral once a day Monday to Friday", "value": "died before week 6"},
      {"measurement": "survival compared to control (vehicle)", "setting": "SOD1G93A rats; 40 mg/kg oral, 5 times a week, 3 times a week from week 6, male rats from age 120 days, n=6", "value": "prolonged the survival; also recorded: survived longer"},
      {"measurement": "disease onset compared to vehicle", "setting": "SOD1G93A rats; 40 mg/kg oral, after week 6", "value": "develop the disease later"},
      {"measurement": "weight loss versus Tg Ctrl", "setting": "[2]", "value": "reduced weight loss during the first stage of the disease"},
      {"measurement": "hind-limb grip strength curve versus Tg Ctrl", "setting": "[3]; 30 mg/kg/day", "value": "significantly improved the grip strength curve"},
      {"measurement": "hind-limb grip strength versus Tg Ctrl", "setting": "[3]; 100 mg/kg/day, from 90 to 120 days", "value": "improved the grip strength during the first stage of the disease"},
      {"measurement": "tolerability, difference between doses", "setting": "[4]; 3 mg/kg/day versus 6 mg/kg/day", "value": "no obvious difference"},
      {"measurement": "tolerability", "setting": "[4]; dosage up to 6 mg/kg/day", "value": "well-tolerated"},
      {"measurement": "FccRI-mediated degranulation of human cord blood mast cells", "setting": "[5]", "value": "inhibition"},
      {"measurement": "results in Non-Tg animals, masitinib versus water", "setting": "Non-Tg SOD1G93A mice", "value": "showed similar results to one another"},
      {"measurement": "median survival compared with positive control group", "setting": "[6]; 30 mg/kg/day", "value": "higher"},
      {"measurement": "Age of onse", "setting": "[6]; age of symptoms onset, individual mice, 100 mg/kg/day oral gavage Monday-Friday from 90 days old, 100 mg/kg/day", "value": "109 (2×) and 111 (5×) and 115"},
      {"measurement": "Age of onse, Averages", "setting": "[6]; 30 mg/kg/day", "value": 111.375},
      {"measurement": "Age of deal, Averages", "setting": "[6]; 30 mg/kg/day", "value": 139.625},
      {"measurement": "Age of onse, Averages", "setting": "[6]; 100 mg/kg/day", "value": 111},
      {"measurement": "Age of deal, Averages", "setting": "[6]; 100 mg/kg/day", "value": 132.125},
      {"measurement": "symptoms onset versus positive control", "setting": "[6]; both doses, 30 or 100 mg/kg/day", "value": "significant delay of symptoms onset"},
      {"measurement": "survival versus positive control", "setting": "[6]; righting reflex as surrogate for survival", "value": "trend to improve survival"}
    ]},
    {"compound": "Nc1nc2ccc(OC(F)(F)F)cc2s1", "note": "[riluzole, 6-(trifluoromethoxy)benzothiazol-2-amine]", "values": [
      {"measurement": "Benefits", "setting": "ALS patients", "value": "Positive transient impact"}
    ]}
  ]
}
